The target in assay [1] is T1, Short transient receptor potential channel 6 (Mus musculus) (UniProt Q61143).
T1 sequence (whole entry): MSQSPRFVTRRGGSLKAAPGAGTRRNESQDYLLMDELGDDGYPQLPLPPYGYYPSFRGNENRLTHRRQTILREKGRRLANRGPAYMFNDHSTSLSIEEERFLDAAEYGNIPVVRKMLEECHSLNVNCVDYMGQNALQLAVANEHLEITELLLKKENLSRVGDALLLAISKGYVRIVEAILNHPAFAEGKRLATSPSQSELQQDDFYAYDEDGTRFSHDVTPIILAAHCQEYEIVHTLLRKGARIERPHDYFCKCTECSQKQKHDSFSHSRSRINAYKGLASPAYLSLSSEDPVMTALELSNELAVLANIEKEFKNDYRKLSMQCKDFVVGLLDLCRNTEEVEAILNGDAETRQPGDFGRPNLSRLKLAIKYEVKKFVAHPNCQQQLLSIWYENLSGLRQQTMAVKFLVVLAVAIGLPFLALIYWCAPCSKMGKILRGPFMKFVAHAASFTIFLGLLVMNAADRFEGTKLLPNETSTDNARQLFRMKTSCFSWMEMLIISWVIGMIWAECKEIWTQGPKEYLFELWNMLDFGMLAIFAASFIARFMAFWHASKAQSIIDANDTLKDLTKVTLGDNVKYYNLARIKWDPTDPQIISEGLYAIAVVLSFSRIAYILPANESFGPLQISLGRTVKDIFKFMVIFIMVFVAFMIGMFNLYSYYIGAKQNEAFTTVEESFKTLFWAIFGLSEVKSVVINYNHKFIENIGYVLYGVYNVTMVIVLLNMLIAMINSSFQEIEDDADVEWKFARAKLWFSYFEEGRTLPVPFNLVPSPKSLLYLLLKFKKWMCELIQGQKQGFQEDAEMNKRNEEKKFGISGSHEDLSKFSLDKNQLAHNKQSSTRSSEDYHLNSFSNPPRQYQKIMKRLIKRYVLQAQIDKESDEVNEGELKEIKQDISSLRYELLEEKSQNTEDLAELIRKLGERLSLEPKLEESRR
Kind of assay: Antagonist activity at mouse TRPC6 stably expressed in HEK293 cells assessed as inhibition of calcium influx at 10 uM by calcium fluorescence assay relative to control. The assay is classed as cell-based.

For assay [2], the target named is T2, Short transient receptor potential channel 6 (Homo sapiens, UniProt Q9Y210).
T2 sequence (Q9Y210 whole entry): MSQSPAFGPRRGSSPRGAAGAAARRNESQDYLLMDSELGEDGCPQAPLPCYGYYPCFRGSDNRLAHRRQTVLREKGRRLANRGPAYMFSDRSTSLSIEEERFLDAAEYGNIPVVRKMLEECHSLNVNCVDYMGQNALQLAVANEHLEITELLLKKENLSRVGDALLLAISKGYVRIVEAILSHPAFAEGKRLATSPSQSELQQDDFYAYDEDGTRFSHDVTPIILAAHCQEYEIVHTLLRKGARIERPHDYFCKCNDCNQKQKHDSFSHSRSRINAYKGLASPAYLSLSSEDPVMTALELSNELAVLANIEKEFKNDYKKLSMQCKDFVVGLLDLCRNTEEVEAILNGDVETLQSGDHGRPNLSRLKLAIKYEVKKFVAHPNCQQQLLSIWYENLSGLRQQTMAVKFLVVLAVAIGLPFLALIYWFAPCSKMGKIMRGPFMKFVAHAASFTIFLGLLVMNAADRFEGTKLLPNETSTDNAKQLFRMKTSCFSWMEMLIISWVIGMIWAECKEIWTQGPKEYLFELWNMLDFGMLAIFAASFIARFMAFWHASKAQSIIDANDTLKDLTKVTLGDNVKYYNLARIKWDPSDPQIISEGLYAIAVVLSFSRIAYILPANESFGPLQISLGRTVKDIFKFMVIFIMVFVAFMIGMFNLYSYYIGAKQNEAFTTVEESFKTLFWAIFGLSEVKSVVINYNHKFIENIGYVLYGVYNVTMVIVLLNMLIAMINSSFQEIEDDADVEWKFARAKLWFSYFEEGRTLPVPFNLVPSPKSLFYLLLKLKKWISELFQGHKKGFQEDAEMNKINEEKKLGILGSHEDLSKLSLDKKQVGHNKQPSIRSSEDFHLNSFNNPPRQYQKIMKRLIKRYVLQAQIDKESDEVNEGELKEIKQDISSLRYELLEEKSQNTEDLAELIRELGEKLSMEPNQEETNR
Kind of assay: Antagonist activity at TRPC6 (unknown origin) assessed as inhibition of channel activity.

For assay [3], the target named is T3, Short transient receptor potential channel 6 (Homo sapiens) (UniProt Q9Y210).
T3 sequence (whole entry): T2 sequence (Q9Y210 whole entry)
Nature of the assay: Antagonist activity at human TRPC6 assessed as inhibition of channel activity at 10 uM relative to control. The conditions noted are these: filed as antagonist.

For assay [4], the target named is T1, Short transient receptor potential channel 6 (Mus musculus). Kind of assay: Antagonist activity at mouse TRPC6 stably expressed in HEK293 cells assessed as inhibition of calcium influx at 10 uM by calcium fluorescence assay. Format: cell-based.
Assay [5] has as its target T4, Short transient receptor potential channel 3 (Homo sapiens, UniProt Q13507).
T4 sequence (Q13507 whole entry): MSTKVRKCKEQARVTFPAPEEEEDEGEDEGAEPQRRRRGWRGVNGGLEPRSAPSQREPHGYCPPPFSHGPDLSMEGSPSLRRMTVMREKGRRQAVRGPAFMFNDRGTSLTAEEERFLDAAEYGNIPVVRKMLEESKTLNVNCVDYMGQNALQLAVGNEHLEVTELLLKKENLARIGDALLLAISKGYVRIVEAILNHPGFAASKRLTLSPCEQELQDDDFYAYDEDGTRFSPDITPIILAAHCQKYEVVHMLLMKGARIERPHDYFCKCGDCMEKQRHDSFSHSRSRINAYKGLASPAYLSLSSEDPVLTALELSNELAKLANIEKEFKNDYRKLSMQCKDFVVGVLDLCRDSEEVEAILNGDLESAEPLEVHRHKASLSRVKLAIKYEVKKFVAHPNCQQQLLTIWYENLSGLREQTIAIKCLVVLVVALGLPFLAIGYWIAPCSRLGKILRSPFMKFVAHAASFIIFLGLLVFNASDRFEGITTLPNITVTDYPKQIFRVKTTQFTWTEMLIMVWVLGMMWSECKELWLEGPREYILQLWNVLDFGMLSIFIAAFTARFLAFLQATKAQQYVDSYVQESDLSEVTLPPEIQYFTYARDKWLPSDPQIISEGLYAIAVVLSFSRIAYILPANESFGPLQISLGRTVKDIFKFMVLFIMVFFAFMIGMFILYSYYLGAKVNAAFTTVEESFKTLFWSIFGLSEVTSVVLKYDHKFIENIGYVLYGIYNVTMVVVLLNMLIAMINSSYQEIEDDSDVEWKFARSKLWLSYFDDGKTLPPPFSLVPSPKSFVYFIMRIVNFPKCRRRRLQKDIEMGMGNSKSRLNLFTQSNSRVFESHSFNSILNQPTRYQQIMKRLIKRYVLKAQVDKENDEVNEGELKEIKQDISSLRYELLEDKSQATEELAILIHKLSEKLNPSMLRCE
Kind of assay: Antagonist activity at TRPC3 (unknown origin) assessed as inhibition of channel activity.

The subject of the next assay is U-87 MG. Kind of assay: Antitumor activity against human U87 cells xenografted in BALB/c nude mouse assessed as tumor growth inhibition at 50 mg/kg/day administered as liposome encapsulated form for 15 days and measured every 3 days by vernier caliper. The assay is classed as functional, U-87MG ATCC. The conditions noted are these: 360 h, time 15 day, read-out: TGI. A general note: In xenograft studies the graft and the host belong to different species.

Structures are written as SMILES. Activity calls are given as the source filed them. The calls are words filed in the database; no cut-off is given here.

The inhibition is the change of the read-out against control, counted positive when it falls. Regarding `CCOC(=O)c1csc(N(CCNC(=O)OC(C)(C)C)C(=O)c2ccc(C(F)(F)F)cc2)n1`, the inhibition in assay [1] stood at 18.7%. `CCOC(=O)c1csc(N(CCNS(C)(=O)=O)Cc2ccc3ccccc3c2)n1`: in assay [1], the inhibition was 32.4%.

For `CCOC(=O)c1csc(N(CCNC(=O)OC(C)(C)C)C(=O)c2ccc([N+](=O)[O-])cc2)n1`, in assay [1], the inhibition was 30.3%.

What is called IC50 is the midpoint of a concentration-inhibition curve. For the compound `COc1cccc2sc(N(CCN(C)C)C(=O)c3ccc4c(c3)CCCC4)nc12`, the inhibition in assay [1] (filed as antagonist) worked out at 84.8%; in assay [3], 84.4%. In assay [2], the IC50 was 4.2 µM. Consider `CC(=O)NCCN(Cc1ccc2ccccc2c1)c1nc(C(=O)Nc2ccc(O)cc2)cs1`, for which the inhibition result in assay [4] is “inactive”. As to `CCOC(=O)c1csc(N(CCNS(N)(=O)=O)Cc2ccc3ccccc3c2)n1`, in assay [1], the inhibition is 0.8%. On to `CC1CCCN(C(=O)c2nc(Nc3cc4c(cc3F)OCO4)sc2Cl)C1C` (stereo not drawn), for which, in assay [5], the IC50 was determined as 0.005 µM. For the compound `CCOC(=O)N1CCC(C)(C2C=C(O)N3N=C(C)C(c4ccc(F)cc4)C3=N2)CC1` (stereo not drawn), the IC50 in assay [2] is 1 µM.

For the compound `NCCN(Cc1cccc(C(F)(F)F)c1)c1nc(C(=O)NCCc2ccccc2)cs1`, the inhibition in assay [1] (filed as antagonist) turned out to be 81.9%.

Regarding `CCOC(=O)c1csc(N(CCN)Cc2ccc3ccccc3c2)n1`, the inhibition in assay [1] (filed as antagonist) is 97.9%. Regarding `CC1CC(C)CN(C(=O)c2csc(Nc3ccc4c(c3)OCO4)n2)C1` (stereo not drawn), the IC50 in assay [2] and in assay [5] was 0.01 µM in each case. For `Cc1sc(Nc2ccc(Cl)cc2F)nc1C(=O)N1CCC[C@H](C)[C@@H]1C`, the IC50 in assay [2] worked out at 0.021 µM; in assay [5], 0.003 µM. Consider `CCOC(=O)c1csc(N(CCN)Cc2ccc(C(F)(F)F)cc2)n1`, for which the inhibition in assay [1] (filed as antagonist) is 84.6%. As to `CCOC(=O)c1csc(N(CCN)Cc2cccc3ccccc23)n1`, in assay [1] (filed as antagonist), the inhibition came to 77.6%. On to `NCCN(Cc1cccc(C(F)(F)F)c1)c1nc(C(=O)Nc2ccc(O)cc2)cs1`, for which the inhibition in assay [1] came out at 10.8%. Turning to `CCN(CC)CCNC(=O)c1csc(N(CCN)Cc2ccc3ccccc3c2)n1`, in assay [1] (filed as antagonist), the inhibition was 53.3%. As for `CCOC(=O)c1csc(N(CCN)Cc2cccc(F)c2F)n1`, in assay [1], the inhibition stood at 14.7%.

Turning to `CCOC(=O)c1csc(N(CCN)C(=O)c2ccc([N+](=O)[O-])cc2)n1`, in assay [1], the inhibition amounted to 23%.

As to `CCOC(=O)c1csc(N(CCN)Cc2cccc([N+](=O)[O-])c2)n1`, in assay [1], the inhibition was 22.1%. Turning to `NCCN(Cc1cccc(C(F)(F)F)c1)c1nc(C(=O)Nc2ncc[nH]2)cs1`, the inhibition in assay [1] was found to be 18.5%. With `CCOC(=O)c1csc(N(CCN)Cc2cccc(C(F)(F)F)c2)n1`, in assay [1] (filed as antagonist), the inhibition stood at 92.2%. In the case of `CCOC(=O)c1csc(N(CCN)Cc2c(F)c(F)c(F)c(F)c2F)n1`, in assay [1], the inhibition came to 29.2%. Turning to `CCOC(=O)c1csc(N(CCN)Cc2ccccc2)n1`, the inhibition in assay [1] turned out to be 30.5%. With `CC(C)(C)c1ccc(Oc2ccc(C(=O)N3CCC(c4ccc(N)nn4)CC3)cc2)cc1`, the IC50 in assay [2] stood at 0.013 µM. `CCOC(=O)c1csc(N(CCN)Cc2cc(F)ccc2Br)n1`: in assay [1] (filed as antagonist), the inhibition amounted to 59.5%.

In the case of `NCCN(Cc1ccc2ccccc2c1)c1nc(C(=O)NC23CC4CC(CC(C4)C2)C3)cs1`, the inhibition in assay [1] amounted to 35.6%.

For the compound `CCOC(=O)c1csc(N(CCN)Cc2ccc3ccccc3n2)n1`, the inhibition in assay [1] (filed as antagonist) amounted to 56.6%. For the compound `NCCN(Cc1ccc2ccccc2c1)c1nc(C(=O)O)cs1`, the inhibition in assay [1] turned out to be 29%. Regarding `CCOC(=O)c1csc(N(CCN)Cc2cccc(OC(F)F)c2)n1`, the inhibition in assay [1] (filed as antagonist) was determined as 40.9%. As to `CCOC(=O)c1csc(NCCN)n1`, the inhibition in assay [1] turned out to be 19.3%. As for `CCOC(=O)c1csc(N(CCN)Cc2ccc3cc(Br)ccc3c2)n1`, the inhibition in assay [1] (filed as antagonist) is 56.8%. For `CCN(CC)CCNC(=O)c1csc(N(CCN)Cc2cccc(C(F)(F)F)c2)n1`, in assay [1] (filed as antagonist), the inhibition came out at 50.6%. In the case of `Cn1nnc2c(C(N)=O)ncn2c1=O` [TEMOZOLOMIDE], in the assay on U-87 MG, the inhibition in vivo at 50 mg/kg/day stood at 36.5%. Regarding `CCOC(=O)c1csc(N(CCN)Cc2ccc([N+](=O)[O-])cc2)n1`, in assay [1], the inhibition is 28.3%. As for `N#Cc1ccc(O[C@@H]2c3ccccc3C[C@@H]2N2CCC[C@@H](N)C2)cc1`, the IC50 in assay [2] is 0.00022 µM.

Consider `CCOC(=O)c1csc(N(CCN)C(=O)c2ccc(C(F)(F)F)cc2)n1`, for which, in assay [1] (filed as antagonist), the inhibition is 44.2%. Take `C=C[C@@](C)(O)CC[C@H]1C(=C)C[C@H](OC(=O)NC)[C@H]2C(C)(C)CCC[C@]12C`: the IC50 in assay [2] stood at 0.0058 µM; in assay [5] it was 0.84 µM.

`CCOC(=O)c1csc(N(CCN)Cc2ccc(OC(F)F)cc2)n1`: in assay [1], the inhibition was determined as 26.1%.

The values above are taken from ChEMBL document CHEMBL5518193, “Discovery of N-alkyl-N-benzyl thiazoles as novel TRPC antagonists for the treatment of glioblastoma multiforme” (Eur J Med Chem, 2024).
